Laboratory results from PMC13327620, “A Deep‐Red‐Absorbing Osmium(II) Complex as a Photosensitizer for Photodynamic Therapy Inducing Immunogenic Cell Death” (Angewandte Chemie (International Ed. in English), 2026).

System: CT26‐luc cells
Test: Annexin V-FITC/propidium iodide (AV/PI) cell viability assay by flow cytometry
Format: cell-based, mouse
Settings: 740 nm LED light (60 min, 12.6 J cm^−2)
Description: Following the gold standard assessment method, the Annexin V‐FITC/propidium iodide (AV/PI) dual staining assay was conducted to screen the suitable concentrations of each drug (Figure S25). In addition, to better monitor tumor growth in vivo, luciferase‐labelled tumor cells (CT26‐luc) were used for in vivo experiments by bioluminescence imaging. […] As the concentration of each drug was increased, the proportion of live cells decreased, while the percentage of dying cells (Q3, Annexin V^+/PI^−) and dead cells (Q2, Annexin V^+/PI^+ and Q1, Annexin V^−/PI^+) increased. The concentrations at which approximately 5% of the cells remained alive (IC95) were 600 µM for Cisplatin in the dark, 1.8 µM for Os2, and 6.5 µM for Ce6 upon 740 nm LED light irradiation (60 min, 12.6 J cm^−2). These concentrations were selected for the subsequent in vivo vaccination studies. […]
incubated for 24 h. Cells were then treat ed with the determined IC50 of complexes and irradiated or kept in the dark. Supernatants were collected 12 h post-t reatm ent, and the extracellular ATP content was measured with Adenosine 5′ -triphosphate (ATP) Bioluminescent Assay Kit (Sigma-Aldrich) according tomanufacturer ’s ins truction. […]
556419) and PI (BD Biosciences, Catalog no.51- 66211E). CT26- luc cells were analyzed by flow cytometry (Beckm an Coulter Life Sciences, CytoFLEX LX Flow Cytometer). […]

C=Cc1c(C)c2cc3nc(c(CC(=O)O)c4[nH]c(cc5nc(cc1[nH]2)C(C)=C5CC)c(C)c4C(=O)O)[C@@H](CCC(=O)O)[C@@H]3C [Ce6, chlorin e6]
Concentration at which approximately 5% of the cells remained alive (IC95): 6.5 µM
